{
  "source": "patent US12403121B2",
  "about": "“Anticancer rocaglamide derivatives” (priority 2018, dated 2025)",
  "key": {"[1]": {"test_system": "Sch10545 Nf2−/− schwannoma cells", "assay": "3-day resazurin cell proliferation assay, Sch10545 schwannoma cells", "format": "cell-based, mouse", "settings": "Mus musculus, 72 h, read-out: IC50 (nM) Sch10545 Nf2−/− schwannoma cells", "method": "(§1) The human MPNST cell lines, ST8814, STS26T, S462, T265, and luciferase-expressing ST8814-Luc, the human NF2-deficient meningioma cell line Ben-Men-1, the NJ2 mouse schwannoma cell line Sch10545, and primary human Schwann cells were propagated as previously described. Oblinger et al., Neuro-Oncol., 18:1265-1277 (2016). The Ewing sarcoma cell line A673 and the osteosarcoma cell lines, 143B and MG-63, were grown in Dulbecco's Modified Eagle's (DME) medium (Millipore-Sigma) supplemented with 10% fetal bovine serum (FBS; Atlanta Biological). The silvestrol-sensitive 697 and silvestrol-resistant 697-R pre-B acute lymphoblastic leukemia cells (Gupta et al., AAPS J., 13:357-364 (2011)), the Ewing sarcoma cell line TC32, the osteosarcoma cell lines, Saos2 and OS17, and the rhabdomyosarcoma cell line RD were cultivated in RPMI 1640 medium (Millipore-Sigma) plus 10% FBS.\n(§2) Actively-growing cells were seeded in 96-well plates (Sarstedt) at 2,000 cells/well for Ben-Men-1 and RD cells, 30,000 cells/well for 697 and 697-R cells, and 4,000 cells/well for all other cell lines. The following day, cells were treated with various concentrations of each compound or and 0.05% of DMSO as the control for six days for MG-63 cells or three days for all remaining cell lines. Cell proliferation was assessed using resazurin assays and the IC50 value calculated. Cell cycle analysis was performed accordingly. Burns et al., Cancer Res., 73:792-803 (2013).\n(§3) To search for compounds with better drug-like properties, the inventors conducted a side-by-side comparison of ten rocaglates lacking the dioxanyl ring with silvestrol for growth-inhibitory activity in a panel of MPNST, schwannoma, and meningioma cell lines, which they had previously shown to be sensitive to the antiproliferative action of silvestrol. […] The average IC50 value of each rocaglate was determined by 3-day resazurin proliferation assays. […] Further structure and activity comparison discerned some positions on the cyclopenta[b]benzofuran scaffold that affected the antiproliferative activity of rocaglates."}, "[2]": {"test_system": "697-R leukemic cells (overexpress MDR1/Pgp)", "assay": "Cell proliferation, MDR1-overexpressing silvestrol-resistant 697-R leukemic cells", "format": "cell-based", "settings": "MDR1, 72 h, read-out: IC50 in 697-R cells", "method": "(§4) FIGS. 3A-3C provide graphs showing that, unlike silvestrol, DDR and Roe inhibits proliferation of MDR1-overexpressing 697-R leukemic cells at IC50 values similar to parental silvestrol-sensitive 697 cells. Cell proliferation was measured on 697-R and parental 697 pre-B leukemia cells treated for 3 days with various concentrations of silvestrol (A), DDR (B), and Roc (C). Each treatment was performed in six replicates, and each experiment was repeated twice. Shown are representative dose-response growth inhibition curves from experiments for all three drugs that were run in parallel. The IC50 values for individual growth curves are shown in the graph insets.\n(§5) The human MPNST cell lines, ST8814, STS26T, S462, T265, and luciferase-expressing ST8814-Luc, the human NF2-deficient meningioma cell line Ben-Men-1, the NJ2 mouse schwannoma cell line Sch10545, and primary human Schwann cells were propagated as previously described. Oblinger et al., Neuro-Oncol., 18:1265-1277 (2016). […]\n(§6) Actively-growing cells were seeded in 96-well plates (Sarstedt) at 2,000 cells/well for Ben-Men-1 and RD cells, 30,000 cells/well for 697 and 697-R cells, and 4,000 cells/well for all other cell lines. […] Cell proliferation was assessed using resazurin assays and the IC50 value calculated. […]"}, "[3]": {"settings": "Kinghorn et al. 2016 and NCI Developmental Therapeutics Program study, same conditions; cited from earlier work"}, "[4]": {"target": "multidrug resistance 1 (MDR1) transporter (Homo sapiens, UniProt P08183)", "settings": "cited from earlier work"}, "[5]": {"settings": "Saradhi et al. 2011; cited from earlier work"}, "[6]": {"test_system": "697 pre-B leukemia cells", "assay": "Cell proliferation, parental silvestrol-sensitive 697 leukemic cells", "format": "cell-based", "settings": "72 h, 3 days treatment", "method": "as §4, §5, §6"}, "[7]": {"test_system": "STS26T NF1+/+ MPNST cells", "assay": "3-day resazurin cell proliferation assay, STS26T MPNST cells", "format": "cell-based, human", "settings": "Homo sapiens, STS-26T, 72 h, read-out: IC50 (nM) STS26T NF1+/+ MPNST cells", "method": "as §1, §2, §3"}, "[8]": {"test_system": "ST8814 NF1−/− MPNST cells", "assay": "3-day resazurin cell proliferation assay, ST8814 MPNST cells", "format": "cell-based, human", "settings": "Homo sapiens, ST88-14, 72 h, read-out: IC50 (nM) ST8814 NF1−/− MPNST cells", "method": "as §1, §2, §3"}, "[9]": {"test_system": "Ben-Men-1 NF2−/− meningioma cells", "assay": "3-day resazurin cell proliferation assay, Ben-Men-1 meningioma cells", "format": "cell-based, human", "settings": "Homo sapiens, 72 h, read-out: IC50 (nM) Ben-Men-1 NF2−/− meningioma cells", "method": "as §1, §2, §3"}},
  "data": [
    {"molecule": "COC(=O)[C@H]1[C@@H](O)[C@@]2(O)c3c(OC)cc(O[C@@H]4O[C@@H]([C@H](O)CO)CO[C@H]4OC)cc3O[C@@]2(c2ccc(OC)cc2)[C@@H]1c1ccccc1", "note": "[Silvestrol, reference compound]", "values": [
      {"measurement": "IC50", "setting": "[1]", "result": 70, "unit": "nM"},
      {"measurement": "IC50", "setting": "[2]", "result": 26, "unit": "nM"},
      {"measurement": "pulmonary toxicity in dogs", "setting": "[3]", "result": "unexpected pulmonary toxicity"},
      {"measurement": "substrate for the MDR1 transporter", "setting": "[4]", "result": "substrate"},
      {"measurement": "oral bioavailability", "setting": "[5]", "result": "less than 2%"},
      {"measurement": "IC50", "setting": "[6]", "result": 3.5, "unit": "nM"},
      {"measurement": "IC50", "setting": "[7]", "result": 10, "unit": "nM"},
      {"measurement": "IC50", "setting": "[8]", "result": 40, "unit": "nM"},
      {"measurement": "IC50", "setting": "[9]", "result": 10, "unit": "nM"}
    ]}
  ]
}
